Laboratory results taken from US20220332802A1, “METHODS AND COMPOSITIONS FOR TREATMENT OF NEURODEGENERATION” (Children's Hospital Medical Center, priority 2019, published 2022).

Columns and labels:
[1] = biological target: T1, GCase (Mus musculus, UniProt P17439)
T1 sequence (P17439 20-515): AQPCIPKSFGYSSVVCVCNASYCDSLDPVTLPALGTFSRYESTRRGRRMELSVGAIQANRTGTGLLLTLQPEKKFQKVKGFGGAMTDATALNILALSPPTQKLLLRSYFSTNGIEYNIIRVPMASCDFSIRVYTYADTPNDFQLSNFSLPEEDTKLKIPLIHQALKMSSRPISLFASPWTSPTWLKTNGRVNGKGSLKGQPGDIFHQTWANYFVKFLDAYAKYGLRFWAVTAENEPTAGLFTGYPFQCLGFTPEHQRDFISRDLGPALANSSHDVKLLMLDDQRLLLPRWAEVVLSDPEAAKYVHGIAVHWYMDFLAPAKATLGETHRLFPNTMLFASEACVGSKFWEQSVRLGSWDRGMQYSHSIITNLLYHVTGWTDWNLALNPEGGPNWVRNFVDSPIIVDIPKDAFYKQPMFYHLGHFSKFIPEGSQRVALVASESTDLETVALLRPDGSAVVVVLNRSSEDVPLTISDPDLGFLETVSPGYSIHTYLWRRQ

[2] = biological target: T1, GCase; parameters: from tissue; brain examined; conditions: i.p. 50 mg/kg/day for 4 weeks; cited from earlier work
[3] = biological target: T2, glucocerebrosidase (GCase) (Mus musculus, UniProt P17439); assay: Targeting of GCase with CBE in WT and C5aR1-/- mice, 60-day observation; format: in vivo; conditions: CBE-injected WT mice
T2 construct: from tissue; brain examined
T2 sequence (P17439 20-515): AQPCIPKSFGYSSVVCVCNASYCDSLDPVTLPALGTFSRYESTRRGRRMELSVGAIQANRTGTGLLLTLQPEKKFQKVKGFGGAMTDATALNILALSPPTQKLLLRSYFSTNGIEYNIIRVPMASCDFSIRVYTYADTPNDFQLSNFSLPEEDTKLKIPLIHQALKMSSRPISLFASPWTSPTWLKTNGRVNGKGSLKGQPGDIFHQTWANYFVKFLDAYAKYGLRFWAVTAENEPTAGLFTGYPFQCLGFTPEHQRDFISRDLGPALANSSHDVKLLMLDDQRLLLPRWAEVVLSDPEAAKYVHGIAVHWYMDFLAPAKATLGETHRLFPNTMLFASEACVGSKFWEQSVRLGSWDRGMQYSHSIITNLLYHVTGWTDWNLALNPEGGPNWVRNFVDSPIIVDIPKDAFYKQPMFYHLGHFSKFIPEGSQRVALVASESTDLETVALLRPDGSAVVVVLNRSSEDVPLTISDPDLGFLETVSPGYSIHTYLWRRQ
Source text: 9V/null mice suffered from massive accumulation of GC in the brain and loss of neurons. Applicant targeted glucocerebrosidase (GCase) with conduritol B epoxide (CBE) in WT and C5aR1^−/− mice. Strikingly, CBE-injected WT mice died within 30 days.

[4] = biological target: T3, C5aR1 (Homo sapiens, UniProt P21730); conditions: cited from earlier work
T3 sequence (P21730 1-350): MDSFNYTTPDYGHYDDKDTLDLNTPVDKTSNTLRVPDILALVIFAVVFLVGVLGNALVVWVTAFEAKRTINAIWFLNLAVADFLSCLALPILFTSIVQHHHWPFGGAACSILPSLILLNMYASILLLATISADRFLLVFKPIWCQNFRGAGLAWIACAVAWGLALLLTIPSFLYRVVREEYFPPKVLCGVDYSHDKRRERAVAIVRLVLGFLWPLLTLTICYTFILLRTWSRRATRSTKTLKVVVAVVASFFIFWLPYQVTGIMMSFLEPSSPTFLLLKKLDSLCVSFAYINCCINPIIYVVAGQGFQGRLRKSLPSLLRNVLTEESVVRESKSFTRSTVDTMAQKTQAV

[5] = test system: experimental Gaucher disease; conditions: cited from earlier work

## O[C@H]1[C@H](O)[C@@H](O)[C@@H]2O[C@@H]2[C@@H]1O (racemic) [CBE, conduritol B epoxide]
[1]; CBE-GCase targeted WT or C5aR1-/- mice, FIG. 8
  motor, memory and reactivity behaviour: no motor or memory defects but are hyper-reactive
[1]; brain of CBE-GCase targeted PD mouse model, FIG. 1
  brain glucosylceramide: increased glucosylceramide
[1]; brains of CBE-GCase targeted PD mouse model, FIG. 2
  brain C5a and C5aR1: increased C5a and C5aR1
[1]; brains of CBE-GCase targeted PD mouse model, FIG. 3
  brain pro-inflammatory cytokines: increased pro-inflammatory cytokines
[2]
  reduction of GCase activity: 25-50%
[3]
  time to death: ≤ 30 days

## Cyclo[N2-(1-Oxo-3-phenylpropyl)-Orn-Pro-D-Cha-Trp-Arg] [PMX 205]
[4]
  concentration at which the peptide specifically targets C5aR1: nanomolar concentrations
  manner of action at C5aR1: pseudo-irreversible and insurmountable

B1: C5a-(1-66, Cys27Ala)-A8B-Del.71-73) (protein)
chain: TLQKKIEEIAAKYKHSVVKKCCYDGAAVNNDETCEQRAARISLGPRCIKAFTECCVVASQLRANISFKRS
modifications: (C5a-(1-66,Cys27Ala)-A8B-Del 71-73)
notes: mutein of human C5a that targets C5aR1 and C5aR2 simultaneously
[5]
  survival and disease signs: increase survival and reverse disease signs
